A word on the inhibition: it is the change of the read-out against control, counted positive when it falls.

Inhibition data for two compounds are collected here from ChEMBL document CHEMBL5442219.

Conditions in all cases: Compound concentration 10 µM
Test [1] addresses Mu-type opioid receptor (Homo sapiens) (UniProt P35372).
Test [2] has as its target Sodium-dependent dopamine transporter (Homo sapiens) (UniProt Q01959).
The target in test [3] is T1, 5-hydroxytryptamine receptor 1A (Homo sapiens) (UniProt P08908).
T1 sequence (whole entry): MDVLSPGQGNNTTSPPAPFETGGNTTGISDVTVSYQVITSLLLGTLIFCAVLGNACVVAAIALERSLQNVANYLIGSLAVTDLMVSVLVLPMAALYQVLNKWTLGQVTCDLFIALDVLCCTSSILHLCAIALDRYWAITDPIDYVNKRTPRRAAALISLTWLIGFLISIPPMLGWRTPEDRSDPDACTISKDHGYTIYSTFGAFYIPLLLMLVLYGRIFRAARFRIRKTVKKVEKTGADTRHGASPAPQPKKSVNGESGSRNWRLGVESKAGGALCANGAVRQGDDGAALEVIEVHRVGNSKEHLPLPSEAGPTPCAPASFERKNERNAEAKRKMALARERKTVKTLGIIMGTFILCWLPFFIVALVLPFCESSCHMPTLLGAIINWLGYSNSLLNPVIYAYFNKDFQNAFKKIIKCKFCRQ

Test [4] deals with Histamine H2 receptor (Homo sapiens) (UniProt P25021).
The target of test [5] is Beta-3 adrenergic receptor (Homo sapiens) (UniProt P13945).
In test [6] the target is Histamine H4 receptor (Homo sapiens) (UniProt Q9H3N8).
For test [7], the target named is 5-hydroxytryptamine receptor 1B (Homo sapiens) (UniProt P28222).
The target in test [8] is T2, 5-hydroxytryptamine receptor 3A (Homo sapiens) (UniProt P46098).
T2 sequence (whole entry): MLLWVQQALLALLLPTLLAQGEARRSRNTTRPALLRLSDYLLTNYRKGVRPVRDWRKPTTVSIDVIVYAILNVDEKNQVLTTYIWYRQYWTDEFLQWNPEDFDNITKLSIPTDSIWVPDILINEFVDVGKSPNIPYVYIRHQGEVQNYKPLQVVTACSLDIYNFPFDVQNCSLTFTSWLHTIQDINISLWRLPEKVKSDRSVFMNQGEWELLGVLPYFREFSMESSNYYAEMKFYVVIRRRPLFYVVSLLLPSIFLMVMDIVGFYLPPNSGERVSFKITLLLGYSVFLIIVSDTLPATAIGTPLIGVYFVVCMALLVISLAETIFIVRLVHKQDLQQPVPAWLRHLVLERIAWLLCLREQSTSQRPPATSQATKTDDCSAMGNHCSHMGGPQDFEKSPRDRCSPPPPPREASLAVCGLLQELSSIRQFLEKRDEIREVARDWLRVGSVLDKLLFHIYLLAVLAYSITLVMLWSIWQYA

For test [9], the target named is Beta-2 adrenergic receptor (Homo sapiens) (UniProt P07550).
In test [10] the target is T3, Muscarinic acetylcholine receptor M4 (Homo sapiens) (UniProt P08173).
T3 sequence (whole entry): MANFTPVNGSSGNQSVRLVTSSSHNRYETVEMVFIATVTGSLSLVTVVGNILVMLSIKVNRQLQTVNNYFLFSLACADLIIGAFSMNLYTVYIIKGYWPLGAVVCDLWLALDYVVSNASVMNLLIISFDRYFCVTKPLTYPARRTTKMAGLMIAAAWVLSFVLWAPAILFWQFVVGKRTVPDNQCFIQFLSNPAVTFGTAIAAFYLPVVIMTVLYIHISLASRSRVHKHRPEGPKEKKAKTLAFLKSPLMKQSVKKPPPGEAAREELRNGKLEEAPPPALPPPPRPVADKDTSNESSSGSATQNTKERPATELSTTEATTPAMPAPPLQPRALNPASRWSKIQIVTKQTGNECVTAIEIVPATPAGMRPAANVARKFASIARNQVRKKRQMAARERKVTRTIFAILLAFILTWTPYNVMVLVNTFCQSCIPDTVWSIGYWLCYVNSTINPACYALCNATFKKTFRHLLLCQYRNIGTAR

The target of test [11] is 5-hydroxytryptamine receptor 1E (Homo sapiens) (UniProt P28566).
Test [12] has as its target Kappa-type opioid receptor (Homo sapiens) (UniProt P41145).
In test [13] the target is Translocator protein (Homo sapiens) (UniProt P30536).
Test [14] deals with 5-hydroxytryptamine receptor 2A (Homo sapiens) (UniProt P28223).
Test [15] addresses D(3) dopamine receptor (Homo sapiens) (UniProt P35462).
For test [16], the target named is 5-hydroxytryptamine receptor 7 (Homo sapiens) (UniProt P34969).
Test [17] concerns the target 5-hydroxytryptamine receptor 2B (Homo sapiens) (UniProt P41595).
The target in test [18] is Histamine H1 receptor (Homo sapiens) (UniProt P35367).
Test [19] has as its target T4, D(4) dopamine receptor (Homo sapiens) (UniProt P21917).
T4 sequence (whole entry): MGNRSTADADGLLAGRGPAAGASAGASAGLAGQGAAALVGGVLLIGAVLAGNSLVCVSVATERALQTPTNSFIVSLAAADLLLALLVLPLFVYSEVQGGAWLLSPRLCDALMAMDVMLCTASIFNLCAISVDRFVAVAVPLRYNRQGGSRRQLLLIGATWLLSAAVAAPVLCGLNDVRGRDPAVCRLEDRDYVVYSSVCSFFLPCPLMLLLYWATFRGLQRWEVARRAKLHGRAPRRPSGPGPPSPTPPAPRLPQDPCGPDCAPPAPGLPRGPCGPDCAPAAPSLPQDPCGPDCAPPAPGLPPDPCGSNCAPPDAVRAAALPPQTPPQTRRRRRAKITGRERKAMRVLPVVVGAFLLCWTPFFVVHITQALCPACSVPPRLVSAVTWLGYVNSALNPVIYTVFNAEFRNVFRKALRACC

Test [20] concerns the target D(2) dopamine receptor (Homo sapiens) (UniProt P14416).
In test [21] the target is D(1A) dopamine receptor (Homo sapiens) (UniProt P21728).
Test [22] deals with T5, Alpha-2A adrenergic receptor (Homo sapiens) (UniProt P08913).
T5 sequence (whole entry): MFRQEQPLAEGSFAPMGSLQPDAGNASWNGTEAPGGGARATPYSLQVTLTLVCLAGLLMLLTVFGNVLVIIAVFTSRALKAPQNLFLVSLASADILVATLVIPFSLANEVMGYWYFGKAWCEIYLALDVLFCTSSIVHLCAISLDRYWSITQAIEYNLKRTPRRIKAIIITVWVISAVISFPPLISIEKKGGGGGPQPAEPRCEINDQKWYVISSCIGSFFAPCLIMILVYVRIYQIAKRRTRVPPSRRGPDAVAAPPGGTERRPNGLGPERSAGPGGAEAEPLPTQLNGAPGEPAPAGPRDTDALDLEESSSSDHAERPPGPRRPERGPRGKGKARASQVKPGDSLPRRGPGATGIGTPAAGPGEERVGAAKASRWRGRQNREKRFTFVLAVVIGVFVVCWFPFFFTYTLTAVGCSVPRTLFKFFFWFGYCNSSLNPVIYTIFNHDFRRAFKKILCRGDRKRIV

The target of test [23] is Sigma non-opioid intracellular receptor 1 (Homo sapiens) (UniProt Q99720).
In test [24] the target is Sigma intracellular receptor 2 (Homo sapiens) (UniProt Q5BJF2).
Test [25] addresses Sodium-dependent serotonin transporter (Homo sapiens) (UniProt P31645).
In test [26] the target is Histamine H3 receptor (Homo sapiens) (UniProt Q9Y5N1).
In test [27] the target is T6, Alpha-2C adrenergic receptor (Homo sapiens) (UniProt P18825).
T6 sequence (whole entry): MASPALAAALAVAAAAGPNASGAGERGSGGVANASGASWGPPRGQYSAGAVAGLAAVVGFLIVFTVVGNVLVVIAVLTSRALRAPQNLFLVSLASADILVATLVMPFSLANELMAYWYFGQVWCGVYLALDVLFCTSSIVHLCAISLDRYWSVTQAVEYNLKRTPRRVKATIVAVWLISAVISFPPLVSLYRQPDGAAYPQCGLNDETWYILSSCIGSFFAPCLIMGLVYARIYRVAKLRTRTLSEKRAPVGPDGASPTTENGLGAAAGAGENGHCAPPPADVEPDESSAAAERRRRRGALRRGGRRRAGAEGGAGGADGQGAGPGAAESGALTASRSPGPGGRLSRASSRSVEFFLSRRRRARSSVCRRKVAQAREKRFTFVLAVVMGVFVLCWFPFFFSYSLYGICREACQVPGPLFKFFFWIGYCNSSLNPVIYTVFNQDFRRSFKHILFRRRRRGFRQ

Test [28] has as its target T7, Alpha-2B adrenergic receptor (Homo sapiens) (UniProt P18089).
T7 sequence (whole entry): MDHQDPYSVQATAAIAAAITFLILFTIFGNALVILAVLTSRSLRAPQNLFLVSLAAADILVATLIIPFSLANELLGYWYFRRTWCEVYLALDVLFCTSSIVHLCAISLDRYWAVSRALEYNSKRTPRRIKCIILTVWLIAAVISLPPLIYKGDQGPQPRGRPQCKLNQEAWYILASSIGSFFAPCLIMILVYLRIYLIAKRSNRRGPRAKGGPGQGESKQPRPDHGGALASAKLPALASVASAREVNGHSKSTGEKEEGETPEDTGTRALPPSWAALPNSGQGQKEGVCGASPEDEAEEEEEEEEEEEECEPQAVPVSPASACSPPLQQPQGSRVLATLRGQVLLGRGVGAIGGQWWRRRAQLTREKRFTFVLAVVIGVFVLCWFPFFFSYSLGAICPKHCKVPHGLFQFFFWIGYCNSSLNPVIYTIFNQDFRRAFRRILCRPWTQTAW

Test [29] has as its target T8, Muscarinic acetylcholine receptor M1 (Homo sapiens) (UniProt P11229).
T8 sequence (whole entry): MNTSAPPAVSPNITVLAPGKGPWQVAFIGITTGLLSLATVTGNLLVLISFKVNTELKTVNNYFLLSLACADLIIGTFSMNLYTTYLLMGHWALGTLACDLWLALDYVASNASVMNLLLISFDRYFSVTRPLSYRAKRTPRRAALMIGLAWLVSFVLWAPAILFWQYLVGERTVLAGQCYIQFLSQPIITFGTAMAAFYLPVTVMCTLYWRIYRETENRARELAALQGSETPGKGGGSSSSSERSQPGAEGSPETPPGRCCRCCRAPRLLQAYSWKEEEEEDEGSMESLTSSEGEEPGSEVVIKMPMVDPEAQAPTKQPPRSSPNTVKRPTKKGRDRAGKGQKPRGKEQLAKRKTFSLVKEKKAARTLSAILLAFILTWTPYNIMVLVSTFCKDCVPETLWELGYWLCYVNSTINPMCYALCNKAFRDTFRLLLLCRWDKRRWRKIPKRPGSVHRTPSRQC

The target in test [30] is 5-hydroxytryptamine receptor 1D (Homo sapiens) (UniProt P28221).
Chain of 5-hydroxytryptamine receptor 1D (Homo sapiens) (P28221 whole entry): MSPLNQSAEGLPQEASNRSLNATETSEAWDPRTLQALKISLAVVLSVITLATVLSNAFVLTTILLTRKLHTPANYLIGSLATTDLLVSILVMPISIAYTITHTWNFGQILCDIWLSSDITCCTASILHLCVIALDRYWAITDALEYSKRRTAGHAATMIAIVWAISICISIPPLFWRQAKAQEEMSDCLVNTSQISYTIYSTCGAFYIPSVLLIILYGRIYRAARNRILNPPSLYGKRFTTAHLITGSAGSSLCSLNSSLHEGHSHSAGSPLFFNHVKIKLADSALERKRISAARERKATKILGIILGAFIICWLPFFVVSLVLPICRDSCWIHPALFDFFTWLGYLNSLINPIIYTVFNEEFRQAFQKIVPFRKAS

Chain of Histamine H4 receptor (Homo sapiens) (Q9H3N8 whole entry): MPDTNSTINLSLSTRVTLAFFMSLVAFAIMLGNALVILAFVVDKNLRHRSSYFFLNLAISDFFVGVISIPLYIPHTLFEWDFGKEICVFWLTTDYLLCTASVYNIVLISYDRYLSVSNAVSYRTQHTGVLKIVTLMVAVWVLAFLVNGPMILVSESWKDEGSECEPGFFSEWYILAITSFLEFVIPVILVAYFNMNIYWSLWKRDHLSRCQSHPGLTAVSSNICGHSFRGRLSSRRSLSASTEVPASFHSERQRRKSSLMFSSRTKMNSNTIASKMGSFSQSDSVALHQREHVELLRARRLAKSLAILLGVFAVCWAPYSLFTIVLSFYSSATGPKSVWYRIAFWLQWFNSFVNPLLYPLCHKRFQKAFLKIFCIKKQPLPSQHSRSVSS
Chain of Beta-2 adrenergic receptor (Homo sapiens) (P07550 whole entry, looked up): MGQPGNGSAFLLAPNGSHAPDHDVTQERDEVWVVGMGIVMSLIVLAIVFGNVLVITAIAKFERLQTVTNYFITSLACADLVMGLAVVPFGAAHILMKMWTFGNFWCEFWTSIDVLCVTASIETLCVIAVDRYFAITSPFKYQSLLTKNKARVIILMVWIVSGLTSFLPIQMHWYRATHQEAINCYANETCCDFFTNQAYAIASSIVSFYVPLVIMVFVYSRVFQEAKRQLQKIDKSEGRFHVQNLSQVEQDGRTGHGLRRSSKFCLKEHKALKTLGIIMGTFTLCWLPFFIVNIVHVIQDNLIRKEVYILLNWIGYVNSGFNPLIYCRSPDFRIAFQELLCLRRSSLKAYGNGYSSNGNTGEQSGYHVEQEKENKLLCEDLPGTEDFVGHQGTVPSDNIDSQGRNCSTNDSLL
Chain of 5-hydroxytryptamine receptor 1E (Homo sapiens) (P28566 whole entry): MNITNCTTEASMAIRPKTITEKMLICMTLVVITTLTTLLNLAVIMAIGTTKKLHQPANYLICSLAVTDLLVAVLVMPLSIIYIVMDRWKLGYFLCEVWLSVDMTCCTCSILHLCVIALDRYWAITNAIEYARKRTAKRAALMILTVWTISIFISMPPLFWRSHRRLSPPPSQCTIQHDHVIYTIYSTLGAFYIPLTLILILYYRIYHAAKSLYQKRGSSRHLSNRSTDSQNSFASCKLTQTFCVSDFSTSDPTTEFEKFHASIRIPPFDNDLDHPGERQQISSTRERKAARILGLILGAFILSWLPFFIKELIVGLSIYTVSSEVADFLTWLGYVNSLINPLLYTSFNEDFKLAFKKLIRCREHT
Chain of Sigma intracellular receptor 2 (Homo sapiens) (Q5BJF2 whole entry): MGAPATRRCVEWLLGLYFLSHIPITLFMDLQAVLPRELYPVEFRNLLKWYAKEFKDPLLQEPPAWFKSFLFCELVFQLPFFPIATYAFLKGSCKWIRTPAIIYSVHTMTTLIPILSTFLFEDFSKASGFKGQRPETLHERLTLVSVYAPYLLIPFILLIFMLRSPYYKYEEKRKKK
Chain of Sigma non-opioid intracellular receptor 1 (Homo sapiens) (Q99720 whole entry): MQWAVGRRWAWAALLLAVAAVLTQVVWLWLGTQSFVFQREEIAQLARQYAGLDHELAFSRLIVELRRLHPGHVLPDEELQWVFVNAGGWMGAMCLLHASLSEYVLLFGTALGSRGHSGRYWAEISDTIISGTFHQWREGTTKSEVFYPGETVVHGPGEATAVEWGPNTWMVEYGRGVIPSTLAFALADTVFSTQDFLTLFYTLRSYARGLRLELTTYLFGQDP
Chain of 5-hydroxytryptamine receptor 2B (Homo sapiens) (P41595 whole entry): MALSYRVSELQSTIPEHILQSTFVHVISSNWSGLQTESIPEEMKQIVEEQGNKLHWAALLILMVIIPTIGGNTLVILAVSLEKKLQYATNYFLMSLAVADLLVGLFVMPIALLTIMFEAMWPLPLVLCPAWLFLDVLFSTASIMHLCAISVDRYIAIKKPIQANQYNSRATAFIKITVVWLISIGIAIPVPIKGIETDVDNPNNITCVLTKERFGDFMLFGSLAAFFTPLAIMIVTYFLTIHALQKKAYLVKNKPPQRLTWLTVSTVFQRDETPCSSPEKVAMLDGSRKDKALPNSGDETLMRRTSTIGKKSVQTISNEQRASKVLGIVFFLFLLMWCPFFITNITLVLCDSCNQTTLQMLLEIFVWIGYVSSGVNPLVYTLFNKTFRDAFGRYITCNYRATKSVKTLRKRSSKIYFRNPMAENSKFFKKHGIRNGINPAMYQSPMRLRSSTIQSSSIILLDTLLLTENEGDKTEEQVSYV
Chain of Kappa-type opioid receptor (Homo sapiens) (P41145 whole entry): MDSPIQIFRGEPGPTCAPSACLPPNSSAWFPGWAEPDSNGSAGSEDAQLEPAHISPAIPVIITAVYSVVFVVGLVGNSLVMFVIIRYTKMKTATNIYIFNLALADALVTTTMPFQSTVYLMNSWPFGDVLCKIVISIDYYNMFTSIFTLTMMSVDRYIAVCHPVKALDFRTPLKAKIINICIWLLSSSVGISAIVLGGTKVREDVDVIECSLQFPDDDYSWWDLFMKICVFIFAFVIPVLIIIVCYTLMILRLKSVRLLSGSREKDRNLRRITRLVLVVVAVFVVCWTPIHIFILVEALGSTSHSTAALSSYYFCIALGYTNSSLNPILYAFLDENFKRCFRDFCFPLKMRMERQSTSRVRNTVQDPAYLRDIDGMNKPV
Chain of D(2) dopamine receptor (Homo sapiens) (P14416 whole entry): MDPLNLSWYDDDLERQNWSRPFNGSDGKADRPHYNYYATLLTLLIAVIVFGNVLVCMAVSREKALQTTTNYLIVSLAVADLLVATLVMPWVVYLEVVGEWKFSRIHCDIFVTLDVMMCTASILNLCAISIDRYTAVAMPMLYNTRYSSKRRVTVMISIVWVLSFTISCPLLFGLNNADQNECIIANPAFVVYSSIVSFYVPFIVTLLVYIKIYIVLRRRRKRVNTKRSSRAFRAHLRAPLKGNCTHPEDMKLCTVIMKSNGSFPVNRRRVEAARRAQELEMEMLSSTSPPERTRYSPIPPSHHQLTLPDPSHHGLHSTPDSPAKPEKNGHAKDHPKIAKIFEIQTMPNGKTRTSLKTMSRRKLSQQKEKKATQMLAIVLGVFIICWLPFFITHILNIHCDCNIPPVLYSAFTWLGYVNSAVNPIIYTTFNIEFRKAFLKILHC
Chain of Translocator protein (Homo sapiens) (P30536 whole entry): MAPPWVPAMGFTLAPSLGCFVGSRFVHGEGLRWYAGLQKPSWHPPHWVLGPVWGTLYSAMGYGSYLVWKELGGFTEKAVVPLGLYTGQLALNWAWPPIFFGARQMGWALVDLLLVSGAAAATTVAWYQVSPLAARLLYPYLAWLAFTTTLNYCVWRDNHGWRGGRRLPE
Chain of 5-hydroxytryptamine receptor 1B (Homo sapiens) (P28222 whole entry): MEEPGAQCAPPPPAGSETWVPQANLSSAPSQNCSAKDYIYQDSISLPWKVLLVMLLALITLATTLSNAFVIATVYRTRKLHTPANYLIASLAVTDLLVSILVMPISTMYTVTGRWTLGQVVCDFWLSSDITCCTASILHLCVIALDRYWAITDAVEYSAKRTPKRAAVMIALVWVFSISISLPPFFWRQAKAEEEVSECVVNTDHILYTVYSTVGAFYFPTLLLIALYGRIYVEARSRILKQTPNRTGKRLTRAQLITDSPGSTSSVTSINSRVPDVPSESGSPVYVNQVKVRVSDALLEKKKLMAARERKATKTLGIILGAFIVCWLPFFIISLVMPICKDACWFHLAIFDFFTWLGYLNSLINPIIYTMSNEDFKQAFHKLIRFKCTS
Chain of 5-hydroxytryptamine receptor 7 (Homo sapiens) (P34969 whole entry): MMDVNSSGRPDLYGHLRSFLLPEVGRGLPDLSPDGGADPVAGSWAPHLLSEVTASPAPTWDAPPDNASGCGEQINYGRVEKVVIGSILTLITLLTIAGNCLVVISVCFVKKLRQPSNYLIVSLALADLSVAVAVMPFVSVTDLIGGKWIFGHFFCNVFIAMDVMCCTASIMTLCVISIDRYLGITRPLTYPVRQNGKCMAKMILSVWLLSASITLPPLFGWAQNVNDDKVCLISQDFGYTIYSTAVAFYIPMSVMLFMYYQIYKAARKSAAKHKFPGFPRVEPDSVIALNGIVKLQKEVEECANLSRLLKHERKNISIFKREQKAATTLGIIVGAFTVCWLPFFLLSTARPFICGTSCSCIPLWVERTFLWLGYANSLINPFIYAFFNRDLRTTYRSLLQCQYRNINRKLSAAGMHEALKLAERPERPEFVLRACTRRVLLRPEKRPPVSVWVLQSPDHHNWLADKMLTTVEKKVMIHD
Chain of Sodium-dependent dopamine transporter (Homo sapiens) (Q01959 whole entry): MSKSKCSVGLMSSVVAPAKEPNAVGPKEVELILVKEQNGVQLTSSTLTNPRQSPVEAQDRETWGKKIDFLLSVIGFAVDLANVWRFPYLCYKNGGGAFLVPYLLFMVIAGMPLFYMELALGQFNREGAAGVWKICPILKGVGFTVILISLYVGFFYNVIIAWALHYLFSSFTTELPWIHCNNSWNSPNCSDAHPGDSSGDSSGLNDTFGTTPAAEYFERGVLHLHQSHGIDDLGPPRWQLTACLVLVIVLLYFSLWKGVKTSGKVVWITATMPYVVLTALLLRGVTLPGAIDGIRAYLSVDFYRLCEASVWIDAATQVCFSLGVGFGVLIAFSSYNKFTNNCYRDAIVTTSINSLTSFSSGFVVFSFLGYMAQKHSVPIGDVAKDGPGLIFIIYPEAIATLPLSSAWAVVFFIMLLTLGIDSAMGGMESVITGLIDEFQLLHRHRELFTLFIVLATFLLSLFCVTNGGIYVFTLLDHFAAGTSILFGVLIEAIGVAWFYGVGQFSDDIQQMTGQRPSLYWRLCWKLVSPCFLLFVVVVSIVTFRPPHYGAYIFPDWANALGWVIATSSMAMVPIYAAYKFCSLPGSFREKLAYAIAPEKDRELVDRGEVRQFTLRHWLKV

Turning to `Cc1c(C(=O)NC2CCCCC2)sc2nc3ccc(N)cc3n12`, the inhibition was 8.54% in test [1]; 17.7% in test [2]; 33.1% in test [3]; 21.4% in test [4]; -9.6% in test [5]; 1.51% in [6]. The inhibition in test [7] was 27.8%; in test [8] it was -6.74%; in test [9], 5.51%; in test [10] it was -5.41%; in test [11], 5.97%; in [12] it was 17.5%. Besides, the inhibition is -2.67% in test [13]; 10.5% in test [14]; 36.7% in test [15]; 6.55% in [16]; 53.3% in test [17]; 11.7% in test [18]. The inhibition in [19] is 38.1%; in [20], -1.44%; in test [21], 7.6%; in test [22] it was -6.44%; in [23], 62.8%; in [24], 10.3%. Besides, the inhibition in [25] is 7.26%; in test [26] it was 4.62%.

Regarding `O=C(O)c1n[nH]c2c1C[C@H]1C[C@@H]21`, the inhibition in test [1] is -4.24%; in [2] it was 1.37%; in test [27] it was 1.98%; in test [6], 10%; in test [7], 13%; in test [9] it was 3.75%. The inhibition is 5.8% in [11]; -6.22% in test [12]; 4.46% in test [13]; 3.24% in [28]; -7.24% in [29]; -5.09% in test [16]. For the same compound, the inhibition in test [30] is 17.2%; in test [17], 15.1%; in test [18], -7.37%; in test [19], -4.86%; in [20], -9.71%; in test [22], 8.74%. Moreover, the inhibition in test [23] was 14.3%; in test [24], 11.9%; in test [26], -7.4%.
